From ChEMBL document CHEMBL3885881, “DrugMatrix”

Organism: Rattus norvegicus
Assay: DrugMatrix - Regimen: Daily Repeat
Format: toxicity, organism-based, Sprague-Dawley
Parameters: regimen Daily Repeat, gender Male, age 6-8 weeks
Conditions: in vivo, […]; for NEUTROPHIL / PLATELET COUNT / ABSOLUTE BASOPHIL / ABSOLUTE EOSINOPHIL / ABSOLUTE LYMPHOCYTE / ABSOLUTE MONOCYTE / ABSOLUTE SEGMENTED NEUTROPHIL / BASOPHIL / EOSINOPHIL / ERYTHROCYTE COUNT / HEMATOCRIT / HEMOGLOBIN / LEUKOCYTE COUNT / LYMPHOCYTE / MEAN CORPUSCULAR HEMOGLOBIN / MEAN CORPUSCULAR HEMOGLOBIN CONCENTRATION / MEAN CORPUSCULAR VOLUME / MONOCYTE / NUCLEATED RED BLOOD CELLS: tissue Blood; for ALANINE AMINOTRANSFERASE / ALBUMIN / ALKALINE PHOSPHATASE / ASPARTATE AMINOTRANSFERASE / BLOOD UREA NITROGEN / CHLORIDE / CHOLESTEROL / CREATINE PHOSPHOKINASE / CREATININE / GLUCOSE / LACTATE DEHYDROGENASE / LIPASE / PHOSPHORUS / POTASSIUM / TOTAL BILIRUBIN / TOTAL PROTEIN / URIC ACID / SODIUM / CARBON DIOXIDE: tissue Plasma
[1] = ip, 2 mg/kg, route intraperitoneal, dose level High, time 28 day, vehicle 100 % SALINE
[2] = ip, 2 mg/kg, route intraperitoneal, dose level High, time 14 day, vehicle 100 % SALINE
[3] = po, 66 mg/kg, 72 h, route oral GAVAGE, dose level High, time 3 day
[4] = po, 66 mg/kg, 120 h, route oral GAVAGE, dose level High, time 5 day
[5] = po, 72 h, route oral GAVAGE, dose 6.6 mg/Kg, dose level Low, time 3 day
[6] = po, 120 h, route oral GAVAGE, dose 6.6 mg/Kg, dose level Low, time 5 day

## CADMIUM DICHLORIDE
[1]
  NEUTROPHIL: 24.62%
  PLATELET COUNT: 1656.44 x10E3/uL
  ALANINE AMINOTRANSFERASE: 39.44 u/L
  ALKALINE PHOSPHATASE: 111 u/L
  ASPARTATE AMINOTRANSFERASE: 167.44 u/L
  BLOOD UREA NITROGEN: 19.67 mg/dL
  CHLORIDE: 108.89 MEQ/L
  CHOLESTEROL: 51.67 mg/dL
  CREATININE: 0.44 mg/dL
  GLUCOSE: 106.78 mg/dL
  LACTATE DEHYDROGENASE: 230.56 u/L
  LIPASE: 45.56 u/L
  POTASSIUM: 6.7 MEQ/L
  SODIUM: 151 MEQ/L
  TOTAL BILIRUBIN: 0.28 mg/dL
  TOTAL PROTEIN: 6.61 G/DL
  URIC ACID: 1.71 mg/dL
[2]
  ALANINE AMINOTRANSFERASE: 35.4 u/L
  ALBUMIN: 3.24 G/DL
  ALKALINE PHOSPHATASE: 169.6 u/L
  ASPARTATE AMINOTRANSFERASE: 182.2 u/L
  BLOOD UREA NITROGEN: 23.8 mg/dL
  CHLORIDE: 109.2 MEQ/L
  CHOLESTEROL: 58.2 mg/dL
  CREATINE PHOSPHOKINASE: 323 u/L
  CREATININE: 0.3 mg/dL
  GLUCOSE: 101 mg/dL
  LACTATE DEHYDROGENASE: 321.4 u/L
  LIPASE: 87.6 u/L
  PHOSPHORUS: 10.28 mg/dL
  POTASSIUM: 6.42 MEQ/L
  TOTAL BILIRUBIN: 0.26 mg/dL
  TOTAL PROTEIN: 5.94 G/DL
  URIC ACID: 2.08 mg/dL
[3]
  ABSOLUTE BASOPHIL: 0 CELLS/uL
  ABSOLUTE EOSINOPHIL: 54 CELLS/uL
  ABSOLUTE LYMPHOCYTE: 13921.33 CELLS/uL
  ABSOLUTE MONOCYTE: 108.67 CELLS/uL
  ABSOLUTE SEGMENTED NEUTROPHIL: 2549.33 CELLS/uL
  BASOPHIL: 0%
  EOSINOPHIL: 0.33%
  ERYTHROCYTE COUNT: 5.45 x10E6/uL
  HEMATOCRIT: 35.37%
  HEMOGLOBIN: 13.67 G/DL
  LEUKOCYTE COUNT: 16.63 x10E3/uL
  LYMPHOCYTE: 83.67%
  MEAN CORPUSCULAR HEMOGLOBIN: 25.13 pg
  MEAN CORPUSCULAR HEMOGLOBIN CONCENTRATION: 38.63 G/DL
  MEAN CORPUSCULAR VOLUME: 64.97 fL
  MONOCYTE: 0.67%
  NEUTROPHIL: 15.33%
  NUCLEATED RED BLOOD CELLS: 0 /100WBC
  PLATELET COUNT: 1218.67 x10E3/uL
  ALANINE AMINOTRANSFERASE: 57.67 u/L
  ALBUMIN: 4.1 G/DL
  ALKALINE PHOSPHATASE: 436 u/L
  ASPARTATE AMINOTRANSFERASE: 100 u/L
  BLOOD UREA NITROGEN: 12.33 mg/dL
  CARBON DIOXIDE: 25 mmol/L
  CHOLESTEROL: 60.33 mg/dL
  CREATINE PHOSPHOKINASE: 279.67 u/L
  CREATININE: 0.17 mg/dL
  LACTATE DEHYDROGENASE: 310 u/L
  LIPASE: 11.33 u/L
  PHOSPHORUS: 12.93 mg/dL
  POTASSIUM: 7.2 MEQ/L
  TOTAL BILIRUBIN: 0.2 mg/dL
  TOTAL PROTEIN: 5.77 G/DL
[4]
  ABSOLUTE BASOPHIL: 0 CELLS/uL
  ABSOLUTE EOSINOPHIL: 0 CELLS/uL
  ABSOLUTE LYMPHOCYTE: 13248 CELLS/uL
  ABSOLUTE MONOCYTE: 120 CELLS/uL
  ABSOLUTE SEGMENTED NEUTROPHIL: 1432 CELLS/uL
  BASOPHIL: 0%
  EOSINOPHIL: 0%
  ERYTHROCYTE COUNT: 5.79 x10E6/uL
  HEMATOCRIT: 35.4%
  HEMOGLOBIN: 14.15 G/DL
  LEUKOCYTE COUNT: 14.8 x10E3/uL
  LYMPHOCYTE: 88%
  MEAN CORPUSCULAR HEMOGLOBIN: 24.55 pg
  MEAN CORPUSCULAR HEMOGLOBIN CONCENTRATION: 39.95 G/DL
  MEAN CORPUSCULAR VOLUME: 61.35 fL
  MONOCYTE: 1%
  NEUTROPHIL: 11%
  NUCLEATED RED BLOOD CELLS: 0 /100WBC
  PLATELET COUNT: 1357 x10E3/uL
  ALANINE AMINOTRANSFERASE: 63 u/L
  ALBUMIN: 4.1 G/DL
  ALKALINE PHOSPHATASE: 217.5 u/L
  ASPARTATE AMINOTRANSFERASE: 122 u/L
  BLOOD UREA NITROGEN: 14 mg/dL
  CARBON DIOXIDE: 18.5 mmol/L
  CHLORIDE: 112 MEQ/L
  CHOLESTEROL: 36 mg/dL
  CREATINE PHOSPHOKINASE: 975 u/L
  CREATININE: 0.2 mg/dL
  GLUCOSE: 189 mg/dL
  LACTATE DEHYDROGENASE: 198.5 u/L
  LIPASE: 11.5 u/L
  POTASSIUM: 6.8 MEQ/L
  TOTAL BILIRUBIN: 0.1 mg/dL
  TOTAL PROTEIN: 5.5 G/DL
  URIC ACID: 2.35 mg/dL
[5]
  ABSOLUTE BASOPHIL: 0 CELLS/uL
  ABSOLUTE EOSINOPHIL: 0 CELLS/uL
  ABSOLUTE LYMPHOCYTE: 17172.67 CELLS/uL
  ABSOLUTE MONOCYTE: 193.33 CELLS/uL
  ABSOLUTE SEGMENTED NEUTROPHIL: 1767.33 CELLS/uL
  BASOPHIL: 0%
  EOSINOPHIL: 0%
  ERYTHROCYTE COUNT: 5.25 x10E6/uL
  HEMATOCRIT: 32.93%
  HEMOGLOBIN: 13.07 G/DL
  LEUKOCYTE COUNT: 19.13 x10E3/uL
  MEAN CORPUSCULAR HEMOGLOBIN CONCENTRATION: 39.7 G/DL
  MONOCYTE: 1%
  NUCLEATED RED BLOOD CELLS: 0 /100WBC
  PLATELET COUNT: 1216 x10E3/uL
  ALANINE AMINOTRANSFERASE: 81 u/L
  ALBUMIN: 4 G/DL
  ALKALINE PHOSPHATASE: 508.5 u/L
  ASPARTATE AMINOTRANSFERASE: 91.67 u/L
  BLOOD UREA NITROGEN: 11.67 mg/dL
  CARBON DIOXIDE: 26 mmol/L
  CHOLESTEROL: 77.33 mg/dL
  CREATINE PHOSPHOKINASE: 283.33 u/L
  CREATININE: 0.19 mg/dL
  GLUCOSE: 152.67 mg/dL
  LACTATE DEHYDROGENASE: 195 u/L
  LIPASE: 12.33 u/L
  PHOSPHORUS: 11.57 mg/dL
  POTASSIUM: 6.8 MEQ/L
  TOTAL BILIRUBIN: 0.2 mg/dL
  TOTAL PROTEIN: 5.57 G/DL
  URIC ACID: 1.3 mg/dL
[6]
  ABSOLUTE BASOPHIL: 0 CELLS/uL
  ABSOLUTE EOSINOPHIL: 0 CELLS/uL
  ABSOLUTE LYMPHOCYTE: 4729 CELLS/uL
  ABSOLUTE MONOCYTE: 0 CELLS/uL
  ABSOLUTE SEGMENTED NEUTROPHIL: 237.67 CELLS/uL
  BASOPHIL: 0%
  EOSINOPHIL: 0%
  ERYTHROCYTE COUNT: 5.13 x10E6/uL
  HEMATOCRIT: 30.77%
  HEMOGLOBIN: 12.03 G/DL
  LEUKOCYTE COUNT: 4.97 x10E3/uL
  LYMPHOCYTE: 94.67%
  MEAN CORPUSCULAR HEMOGLOBIN: 23.43 pg
  MEAN CORPUSCULAR HEMOGLOBIN CONCENTRATION: 39.13 G/DL
  MONOCYTE: 0%
  NEUTROPHIL: 5.33%
  NUCLEATED RED BLOOD CELLS: 0 /100WBC
  PLATELET COUNT: 996.33 x10E3/uL
  ALANINE AMINOTRANSFERASE: 78.67 u/L
  ALKALINE PHOSPHATASE: 485.67 u/L
  ASPARTATE AMINOTRANSFERASE: 93 u/L
  BLOOD UREA NITROGEN: 12.67 mg/dL
  CARBON DIOXIDE: 30 mmol/L
  CHOLESTEROL: 72.33 mg/dL
  CREATINE PHOSPHOKINASE: 141.33 u/L
  CREATININE: 0.16 mg/dL
  GLUCOSE: 141.33 mg/dL
  LACTATE DEHYDROGENASE: 102.33 u/L
  LIPASE: 11 u/L
  POTASSIUM: 6.24 MEQ/L
  SODIUM: 149.5 MEQ/L
  TOTAL BILIRUBIN: 0.2 mg/dL
  URIC ACID: 0.97 mg/dL
